Tests used:
[1] = test system: hemiparkinsonian MPTP-monkeys; test: Ipsilateral and contralateral circling behavior in hemiparkinsonian MPTP-monkeys; type: in vivo, macaca fasicularis
Procedure: (§1) Six hemiparkinsonian ovariectomized female macaca fasicularis monkeys weighing 2.8-6.5 kg were used in this experiment. During induction of the parkinsonian syndrome, they received 1-methyl-4-phenyl-1,2,3,6-tetrahydropyridine (MPTP, 3 mg) via an Alzet pump during a period of 1-2 weeks according to the monkey. The procedure consisted of putting the pump in the left substantia nigra and the MPTP infused lesioned the dopaminergic cells. The animals were used at least 5 months after the induction of their hemiparkinsonian state at which time they had stabilized. For a further experimentation, 6 bilaterally-lesioned parkinsonian macaca fasicularis monkeys were used. The induction of the parkinsonian syndrome was performed according to the above-described methodology, except that the Alzet pump was installed so as to lesion dopaminergic cells of the substantia nigra in both brain hemispheres.
(§2) To determine the effect of levodopa, DHEA or combination thereof on parkinsonian monkeys, ipsilateral and contralateral circling was monitored in hemiparkinsonian monkeys while Parkinsonian score was determined in bilaterally-lesion parkinsonian monkeys. Hemiparkinsonian monkeys turn towards the ipsilateral side of the lesion (to the left) under basal conditions and upon dopaminergic stimulation this circling changes for the contralateral side (to the right). Parkinsonian score was determined in bilaterally-lesion parkinsonian monkeys according to the method known in the art. All received the same treatments and were their own controls. Monkeys were first treated with levodopa for priming until a stable antiparkinsonian behavior was observed. During the investigation of DHEA administered alone, priming of the monkeys was continued with administration of levodopa/benserazide (50/12.5 mg) given twice weekly. DHEA treatments were started on the third day after the last levodopa dose.
(§3) DHEA was administered at different doses (1, 5, and 15 mg/kg) by nasogastric gavage (n.g.) alone and in combination (DHEA: 1, 5, 10 and 15 mg/kg n.g.) with a s.c. T.L-Dopa. Threshold doses of levodopa, that is the minimal dose to obtain contralateral circling were sought for each of the MPTP-monkeys and varied from one monkey to another from 3 to 8 mg/kg (3, 4, 4.5, 5, 5, and 8 mg/kg). Higher doses of DHEA (25-100 mg/kg) alone or with T.L-Dopa were also tested in a similar paradigm.
Treatments were administered in the morning and each animal was recorded via a video camera system. Duration of locomotor activation lasted for 90 min for all hemiparkinsonian animals and treatments. […] Each treatment was repeated 2-3 times and averaged for each monkey.
Experimental data was compared using an ANOVA for repeated measures followed by post-hoc pair wise comparisons with Fisher's probability of least significant difference test (PLSD). A p<0.05 was required for the results to be considered statistically significant. Statistical comparison of square root transformation of the data was used to stabilize variance when required (D. C. Montgomery (1991) Third Edition, Design and analysis of experiments. ed. Whileys and Sons pp. 216).

[2] = test system: bilaterally-lesioned parkinsonian MPTP-monkeys; test: Parkinsonian score and duration of levodopa effect in bilaterally-lesioned parkinsonian MPTP-monkeys; type: in vivo, macaca fasicularis
Procedure: as §1, §2, §3
Experimental data was compared using an ANOVA for repeated measures followed by post-hoc pair wise comparisons with Fisher's probability of least significant difference test (PLSD). A p<0.05 was required for the results to be considered statistically significant. […]

[3] = DHEA 1 mg/kg n.g. added to threshold dose s.c. T.L-Dopa, compared to saline or T.L-Dopa alone
[4] = DHEA 5, 10 and 15 mg/kg n.g. combined with T.L-Dopa, compared to saline
[5] = threshold dose of levodopa alone

SMILES	contralateral circling (mean/30 min) [1, 3]	contralateral circling (mean/30 min) [1, 4]	levodopa-induced locomotor activity ([1]; DHEA added to minimal threshold doses of levodopa)	contralateral circling (mean/30 min) ([1]; DHEA alone 1-15 mg/kg n.g., compared to saline treatment)	ipsilateral circling ([1]; DHEA alone or DHEA combined to T.L-Dopa, versus basal conditions or saline)	dose-response on circling behavior ([1]; DHEA alone or combined with levodopa)	Duration of the DHEA effect ([1]; DHEA alone, n.g.) [min]	effect on levodopa-induced change in ipsilateral, contralateral and ipsilateral-contralateral circling ([1]; optimal dose of DHEA for each monkey combined with threshold levodopa)	Parkinsonian score [2, 3]	increase of duration of levodopa effect ([2]; DHEA 1 and 5 mg/kg with threshold dose of levodopa, versus levodopa alone)	Parkinsonian score [2, 4]	Parkinsonian score ([2]; DHEA alone at different doses, n.g.)	contralateral circling [1, 5]	ipsilateral circling [1, 5]	overall ipsilateral-contralateral circling [1, 5]
C[C@]12CC[C@H](O)CC1=CC[C@@H]1[C@@H]2CC[C@]2(C)C(=O)CC[C@@H]12 [DHEA, Dehydroepiandrosterone]	significantly increased	significantly increased	potentiates	significantly and similarly increased	decreased	did not produce a significant dose-response	90	significantly potentiated	decreased	approximately 40%	reduced	reduce	–	–	–
N[C@@H](Cc1ccc(O)c(O)c1)C(=O)O [Levodopa, L-3,4-dihydroxyphenylalanine]	–	–	–	–	–	–	–	–	–	–	–	–	increased	decreased	reducing
